Measurements from paper PMC10386076, “Discovery of RC-752, a Novel Sigma-1 Receptor Antagonist with Antinociceptive Activity: A Promising Tool for Fighting Neuropathic Pain” (Pharmaceuticals, 2023).

Columns and labels:
HeLa cells = test: AQP-mediated osmotic water permeability assay (stopped-flow light scattering); conditions: pre-treatment 20 μM, heat stress 42 °C 3 h
Method: As an orthogonal assay to determine the functional profile of our compounds, the effect on AQP-mediated water permeability was investigated. AQPs are a family of transmembrane proteins involved in the transport of water and other small molecules (e.g., H2O2) through cell membranes. AQP functions are thus critical in ensuring reactive oxygen species (ROS) scavenging and cell survival. […] Briefly, the osmotic water permeability of HeLa cells was measured by a stopped-flow light scattering method and expressed as a percentage of k relative.
Osmotic water permeability was measured in the HeLa cell suspension by the stopped-flow light scattering method, as previously described. The experiments were performed at 25 °C on the stopped-flow apparatus (RX2000, Applied Photophysics, Leatherhead, UK) with a pneumatic drive accessory (DA.1, Applied Photophysics) straightforwardly coupled with a Varian Cary 50 spectrometer (Varian Australia Pty Ltd., Mulgrave, Australia). Briefly, scattered light intensity with a dead time of 6 ms was recorded at a wavelength of 450 nm. […] To evaluate the effect of the test compounds on water permeability, the HeLa cells were divided into different groups: (1) controls, cells incubated at r.t. (21 °C) in the presence of the same volume of methanol as that of the treated cells; (2) heat-stressed cells, cells heat-treated in a water thermostatic and shacking bath at 42 °C for 3 h; (3) heat-stressed cells pre-treated with the test compounds at a 20 µM final concentration (dissolved in methanol).

PC12 cells = test: NGF-induced neurite outgrowth assay in PC12 cells; format: cell-based; conditions: for effect on percentage of differentiated PC12 cells, co-administration with PRE-084: 0.25 μM and 2.5 μM with 10 μM PRE-084, vs PRE-084; for effect on NGF-induced neurite outgrowth, compound alone: 0.25 μM and 2.5 μM, vs NGF
Method: At 80% confluence, the cells were either split to allow a further culture expansion or plated onto 48-well flat-bottom plates previously coated with poly-L-ornithine (Sigma Aldrich, Milan, Italy) at the final concentration of 10 μg/cm^2. The cells were plated at low density (2500 cells/well) to allow proper neurite elongation. The PC12 cells were mechanically detached from the flask to avoid cell-surface receptor cleavage and to preserve the correct binding of NGF to the TrkA receptors. To minimize detachment stress, the cells were left in PM for 24 h to recover. […] PRE-084 (10 µM), an S1R agonist, was used to verify that the effects of the selected compounds were due to the S1R modulation. In CTR conditions, the cells were incubated with the drug vehicle. For all the ligands, two replicates per concentration were performed in at least 3 experiments with different PC12 batches.
After 72 h incubation in DM, the cells were fixed with a 4% paraformaldehyde solution (pH 7.4). To allow the neurite visualization with a bright-field microscope, the cells were stained with the Harris Hematoxylin solution (Sigma Aldrich). After staining, images of six fields per well were acquired with a digital camera linked to a bright-field inverted microscope (Optika) (20× magnification). […] Only the cells bearing a neurite as long as their soma’s diameter were identified as differentiated cells. The number of differentiated cells was expressed as the percentage of differentiated cells over the total number of cells.

S1R = molecular target: T1, S1R (Cavia porcellus, UniProt Q60492); test: S1R radioligand displacement binding assay ([3H]-(+)-pentazocine); parameters: species or system guinea pig; conditions: for Selectivity (Ki S2R/Ki S1R): ratio Ki S2R/Ki S1R
T1 construct: tissue Harlan-Winkelmann, Borchen, Germany; host or cells: guinea pig brain membrane homogenate
Method: (R/S)-1a–3e were first evaluated for their binding affinity toward the S1R and S2R in a radioligand displacement assay. […] Nonspecific binding was determined using non-radiolabeled (+)-pentazocine and haloperidol in excess. All the binding experiments were carried out in duplicate. […] Haloperidol was used as a control compound in both assays.
Five guinea pig brains were homogenized with the potter (500–800 rpm, 10 up and down strokes) in 6 volumes of cold 0.32 M sucrose. The suspension was centrifuged at 1200× g for 10 min at 4 °C. […] This procedure was repeated twice. The final pellet was resuspended in 56 volumes of buffer and frozen ([…]) in 1.5 mL portions containing about 1.5 mg protein/mL.
The test compound solutions were prepared by dissolving approximately 10 µmol (usually 2–4 mg) of test compound in dimethyl sulfoxide (DMSO, unless otherwise specified), so that a 10 mM stock solution was obtained. To obtain the required test solutions for the assay, the DMSO stock solution was diluted with the respective assay buffer. The filtermats were presoaked in 0.5% aqueous polyethylenamine solution for 2 h at r.t. before use. All the binding experiments were carried out in duplicate in 96-well multiplates. The concentrations given are the final concentrations in the assay. […] The receptor preparation was always added last. During the incubation, the multiplates were shaken at a speed of 500–600 rpm at the specified temperature. […] During the filtration each well was washed five times with 300 µL of water. Subsequently, the filtermats were dried at 95 °C. The solid scintillator was melted on the dried filtermats at 95 °C for 5 min. After the solidifying of the scintillator at r.t., the trapped radioactivity in the filtermats was measured with the scintillation analyzer. Each position on the filtermat corresponding to one well of the multiplate was measured for 5 min with the [^3H]-counting protocol. The overall counting efficiency was 20%. The IC50 values were calculated with GraphPad Prism 3.0 (GraphPad Software, San Diego, CA, USA) by nonlinear regression analysis. The IC50 values were subsequently transformed into Ki values using the equation of Cheng and Prusoff. All the experiments were carried out in duplicates. Compounds with high S1R affinity were tested in three independent experiments, and their Ki values are given as mean value ± SEM from the three measurements. […] (22.0 Ci/mmol; Perkin-Elmer). […] The nonspecific binding was determined with 10 µM unlabeled (+)-pentazocine.

T1 sequence (Q60492 whole entry): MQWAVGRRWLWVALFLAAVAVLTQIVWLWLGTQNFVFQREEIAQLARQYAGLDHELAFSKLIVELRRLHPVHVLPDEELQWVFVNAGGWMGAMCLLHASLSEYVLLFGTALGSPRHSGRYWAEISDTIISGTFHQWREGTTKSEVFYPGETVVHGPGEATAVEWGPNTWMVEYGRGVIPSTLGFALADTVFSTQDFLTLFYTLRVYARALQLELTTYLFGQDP

OCC(CCN1CCOCC1)c1ccc(-c2ccccc2)cc1 (stereo not drawn) [Compound 1a, 2-([1,1’-biphenyl]-4-yl)-4-morpholinobutan-1-ol]
effect on water permeability in heat-stressed HeLa cells (HeLa cells): in line with that of S1R antagonists
effect on percentage of differentiated PC12 cells, co-administration with PRE-084 (PC12 cells): significantly reduced
effect on NGF-induced neurite outgrowth, compound alone (PC12 cells): did not significantly enhance
Ki (S1R): 13 ± 3 nM
Selectivity (Ki S2R/Ki S1R) (S1R): 24

CCN(CC)CCC(CO)c1ccc(-c2ccccc2)cc1 (stereo not drawn) [Compound 1b, 2-([1,1’-biphenyl]-4-yl)-4-(diethylamino)butan-1-ol]
Ki (S1R): 20 ± 4 nM
Selectivity (Ki S2R/Ki S1R) (S1R): 34

OCC(CCN1CCC(Cc2ccccc2)CC1)c1ccc(-c2ccccc2)cc1 (stereo not drawn) [Compound 1e, 2-([1,1’-biphenyl]-4-yl)-4-(4-benzylpiperidin-1-yl)butan-1-ol]
Ki (S1R): 94 ± 12 nM
Selectivity (Ki S2R/Ki S1R) (S1R): 2

OCC(CCN1CCOCC1)c1ccc2ccccc2c1 (stereo not drawn) [Compound 2a, 4-morpholino-2-(naphthalen-2-yl)butan-1-ol]
Ki (S1R): 206 ± 37 nM
Selectivity (Ki S2R/Ki S1R) (S1R): 31

CCN(CC)CCC(CO)c1ccc2ccccc2c1 (stereo not drawn) [Compound 2b, 4-(diethylamino)-2-(naphthalen-2-yl)butan-1-ol]
Ki (S1R): 110 ± 25 nM
Selectivity (Ki S2R/Ki S1R) (S1R): 10

CN(CCC(CO)c1ccc2ccccc2c1)Cc1ccccc1 (stereo not drawn) [Compound 2c, 4-(benzyl(methyl)amino)-2-(naphthalen-2-yl)butan-1-ol]
Ki (S1R): 9.5 ± 1.8 nM
Selectivity (Ki S2R/Ki S1R) (S1R): 4

OCC(CCN1CCCCC1)c1ccc2ccccc2c1 (stereo not drawn) [Compound 2d, 2-(naphthalen-2-yl)-4-(piperidin-1-yl)butan-1-ol]
effect on water permeability in heat-stressed HeLa cells (HeLa cells): in line with that of S1R antagonists
effect on percentage of differentiated PC12 cells, co-administration with PRE-084 (PC12 cells): significantly reduced
effect on NGF-induced neurite outgrowth, compound alone (PC12 cells): did not significantly enhance
Ki (S1R): 15 ± 6 nM
Selectivity (Ki S2R/Ki S1R) (S1R): 11

OCC(CCN1CCC(Cc2ccccc2)CC1)c1ccc2ccccc2c1 (stereo not drawn) [Compound 2e, 4-(4-benzylpiperidin-1-yl)-2-(naphthalen-2-yl)butan-1-ol]
Ki (S1R): 25 ± 4 nM
Selectivity (Ki S2R/Ki S1R) (S1R): 13

COc1ccc2cc(C(CO)CCN3CCOCC3)ccc2c1 (stereo not drawn) [Compound 3a, 2-(6-methoxynaphthalen-2-yl)-4-morpholinobutan-1-ol]
Ki (S1R): 324 ± 10 nM
Selectivity (Ki S2R/Ki S1R) (S1R): 4

CCN(CC)CCC(CO)c1ccc2cc(OC)ccc2c1 (stereo not drawn) [Compound 3b, 4-(diethylamino)-2-(6-methoxynaphthalen-2-yl)butan-1-ol]
Ki (S1R): 87 ± 28 nM
Selectivity (Ki S2R/Ki S1R) (S1R): 14

COc1ccc2cc(C(CO)CCN(C)Cc3ccccc3)ccc2c1 (stereo not drawn) [Compound 3c, 4-(benzyl(methyl)amino)-2-(6-methoxynaphthalen-2-yl)butan-1-ol]
Ki (S1R): 20 ± 3 nM
Selectivity (Ki S2R/Ki S1R) (S1R): 7

COc1ccc2cc(C(CO)CCN3CCCCC3)ccc2c1 (stereo not drawn) [Compound 3d, 2-(6-methoxynaphthalen-2-yl)-4-(piperidin-1-yl)butan-1-ol]
Ki (S1R): 38 ± 9 nM
Selectivity (Ki S2R/Ki S1R) (S1R): 32

COc1ccc2cc(C(CO)CCN3CCC(Cc4ccccc4)CC3)ccc2c1 (stereo not drawn) [Compound 3e, 4-(4-benzylpiperidin-1-yl)-2-(6-methoxynaphthalen-2-yl)butan-1-ol]
Ki (S1R): 85 ± 11 nM
Selectivity (Ki S2R/Ki S1R) (S1R): 0.6

CCCN(CCC)CCc1ccc(OC)c(OCCc2ccccc2)c1 [NE-100, reference compound]
effect on water permeability in heat-stressed HeLa cells (HeLa cells): has no effect

O=C(OCCN1CCOCC1)C1(c2ccccc2)CCCCC1 [PRE-084, reference compound]
effect on water permeability in heat-stressed HeLa cells (HeLa cells): effective in restoring water permeability
neurite outgrowth, % of PC12 cells (PC12 cells; PRE-084 at 10 μM, with NGF): 36 ± 4%

NGF
differentiation, % of PC12 cells (PC12 cells; NGF alone at 2.5 nM): 22 ± 2%
